Laboratory results published in ChEMBL document CHEMBL4020801, “New merosesquiterpenes from a Vietnamese marine sponge of Spongia sp. and their biological activities” (Bioorg Med Chem Lett, 2017).
Converted amounts (≈) assume the structure as drawn.

Tests used:
[1] = system: Escherichia coli; assay: Antibacterial activity against Escherichia coli NBRC 102203 after 12 hrs by MTT assay; format: functional; conditions: NBRC 102203, 12 h
[2] = system: Bacillus subtilis; assay: Antibacterial activity against Bacillus subtilis NBRC 13719 after 12 hrs by MTT assay; format: functional; conditions: NBRC 13719, 12 h
[3] = system: HeLa; assay: Cytotoxicity against human HeLa cells assessed as decrease in cell viability after 72 hrs by WST8 assay; format: functional, cell-based
[4] = system: MCF7; assay: Cytotoxicity against human MCF7 cells assessed as decrease in cell viability after 72 hrs by WST8 assay; format: functional, cell-based; conditions: MCF7, 72 h
[5] = system: A549; assay: Cytotoxicity against human A549 cells assessed as decrease in cell viability after 72 hrs by WST8 assay; format: functional, cell-based; conditions: A549, 72 h
[6] = system: Klebsiella pneumoniae; assay: Antibacterial activity against Klebsiella pneumoniae NBRC 14940 after 12 hrs by MTT assay; format: functional; conditions: NBRC 14940, 12 h
[7] = system: Staphylococcus aureus; assay: Antibacterial activity against Staphylococcus aureus NBRC 100910 after 12 hrs by MTT assay; format: functional; conditions: NBRC 100910, 12 h
[8] = system: WI-38; assay: Cytotoxicity against human WI38 cells assessed as decrease in cell viability after 72 hrs by WST8 assay; format: cell-based; conditions: WI-38, 72 h

C=C1CCC[C@@H]2[C@@](CO)(Cc3cc(C(=O)OC)c(O)c(OC)c3O)[C@H](C)CC[C@@]12C
MIC [1]: > 100 µM
MIC [2]: > 100 µM
IC50 [3]: > 50 µM
IC50 [4]: > 50 µM
IC50 [5]: > 50 µM
MIC [6]: > 100 µM
MIC [7]: > 100 µM
IC50 [8]: 42.1 µM

C=C1CCC[C@H]2[C@](C)(CC3=C(O)C(=O)C=C(NCC(C)CC)C3=O)[C@@H](C)CC[C@]12C (some centres not stated)
MIC [1]: > 100 µM
MIC [2]: 6.25 µM (≈ 2.59 µg/mL)
IC50 [3]: 4.8 µM
IC50 [4]: 7.6 µM
IC50 [5]: 8.9 µM
MIC [6]: > 100 µM
MIC [7]: 6.25 µM (≈ 2.59 µg/mL)
IC50 [8]: 6.9 µM

C=C1CCC[C@@H]2[C@@](C=O)(Cc3cc(C(=O)OC)c(O)c(OC)c3O)[C@H](C)CC[C@@]12C
MIC [1]: > 100 µM
MIC [2]: 25 µM (≈ 10.4 µg/mL)
IC50 [3]: 7.2 µM
IC50 [4]: 5 µM
IC50 [5]: 7.8 µM
MIC [6]: > 100 µM
MIC [7]: > 100 µM
IC50 [8]: 8.7 µM

O=c1[nH]cc(F)c(=O)[nH]1 [FLUOROURACIL]
IC50 [3]: 5.3 µM
IC50 [4]: 5.6 µM
IC50 [5]: 4.7 µM
IC50 [8]: 6.8 µM

C=C1CCC[C@H]2[C@](C)(CC3=C(O)C(=O)C=C(OCCCC)C3=O)[C@@H](C)CC[C@]12C
MIC [1]: > 100 µM
MIC [2]: 6.25 µM (≈ 2.5 µg/mL)
IC50 [3]: 7.6 µM
IC50 [4]: 9.6 µM
IC50 [5]: 6.6 µM
MIC [6]: > 100 µM
MIC [7]: 12.5 µM (≈ 5.01 µg/mL)
IC50 [8]: 8.2 µM

C=C1CCC[C@H]2[C@](C)(CC3=C(O)C(=O)C=C(NCCc4ccccc4)C3=O)[C@@H](C)CC[C@]12C
MIC [1]: > 100 µM
MIC [2]: 6.25 µM (≈ 2.8 µg/mL)
IC50 [3]: 5 µM
IC50 [4]: 6.5 µM
IC50 [5]: 4 µM
MIC [6]: > 100 µM
MIC [7]: 6.25 µM (≈ 2.8 µg/mL)
IC50 [8]: 3 µM

CC1(C)S[C@@H]2[C@H](NC(=O)[C@H](N)c3ccccc3)C(=O)N2[C@H]1C(=O)O [AMPICILLIN]
MIC [2]: 6.25 µM (≈ 2.18 µg/mL)
MIC [7]: 6.25 µM (≈ 2.18 µg/mL)

C=C1CCC[C@@H]2[C@@](C)(Cc3cc(C(=O)OC)cc(OC)c3O)[C@H](C)CC[C@@]12C
MIC [1]: > 100 µM
MIC [2]: > 100 µM
IC50 [3]: > 50 µM
IC50 [4]: > 50 µM
IC50 [5]: > 50 µM
MIC [6]: > 100 µM
MIC [7]: > 100 µM
IC50 [8]: > 50 µM

C=C1CCC[C@H]2[C@](C)(CC3=C(O)C(=O)C=C(NCC(C)C)C3=O)[C@@H](C)CC[C@]12C
MIC [1]: > 100 µM
MIC [2]: 12.5 µM (≈ 4.99 µg/mL)
IC50 [3]: 7.6 µM
IC50 [4]: 4.6 µM
IC50 [5]: 6.7 µM
MIC [6]: > 100 µM
MIC [7]: 25 µM (≈ 9.99 µg/mL)
IC50 [8]: 3.5 µM

C=C1CCC[C@@H]2[C@@](CO)(Cc3cc(C(=O)OC)cc(OC)c3O)[C@H](C)CC[C@@]12C
MIC [1]: > 100 µM
MIC [2]: > 100 µM
IC50 [3]: > 50 µM
IC50 [4]: 42.6 µM
IC50 [5]: > 50 µM
MIC [6]: > 100 µM
MIC [7]: > 100 µM
IC50 [8]: > 50 µM

NC[C@H]1O[C@H](O[C@H]2[C@H](O)[C@@H](O[C@H]3O[C@H](CO)[C@@H](O)[C@H](N)[C@H]3O)[C@H](N)C[C@@H]2N)[C@H](O)[C@@H](O)[C@@H]1O [KANAMYCIN]
MIC [1]: 12.5 µM (≈ 6.06 µg/mL)
MIC [6]: 6.25 µM (≈ 3.03 µg/mL)

C=C1CCC[C@@H]2[C@@](C)(Cc3cc(C(=O)OC)c(O)c(OC)c3O)[C@H](C)CC[C@@]12C
MIC [1]: > 100 µM
MIC [2]: 12.5 µM (≈ 5.03 µg/mL)
IC50 [3]: > 50 µM
IC50 [4]: > 50 µM
IC50 [5]: > 50 µM
MIC [6]: > 100 µM
MIC [7]: > 100 µM
IC50 [8]: > 50 µM

C=C1CCC[C@@H]2[C@@](C)(Cc3cc(C(=O)OC)cc(O)c3O)[C@H](C)CC[C@@]12C
MIC [1]: > 100 µM
MIC [2]: 6.25 µM (≈ 2.33 µg/mL)
IC50 [3]: > 50 µM
IC50 [4]: > 50 µM
IC50 [5]: > 50 µM
MIC [6]: > 100 µM
MIC [7]: 6.25 µM (≈ 2.33 µg/mL)
IC50 [8]: > 50 µM

C=C1CCC[C@H]2[C@](C)(CC3=C(O)C(=O)C=C(OC)C3=O)[C@@H](C)CC[C@]12C [ILIMAQUINONE]
MIC [1]: > 100 µM
MIC [2]: 6.25 µM (≈ 2.24 µg/mL)
IC50 [3]: 7.6 µM
IC50 [4]: 8.3 µM
IC50 [5]: 5.9 µM
MIC [6]: > 100 µM
MIC [7]: 6.25 µM (≈ 2.24 µg/mL)
IC50 [8]: 9.7 µM

C=C1CCC[C@@H]2[C@@](C=O)(Cc3cc(C(=O)OC)cc(OC)c3O)[C@H](C)CC[C@@]12C
MIC [1]: > 100 µM
MIC [2]: > 100 µM
IC50 [3]: > 50 µM
IC50 [4]: > 50 µM
IC50 [5]: > 50 µM
MIC [6]: > 100 µM
MIC [7]: > 100 µM
IC50 [8]: > 50 µM

C=C1CCC[C@H]2[C@](C)(CC3=C(O)C(=O)C=C(NCCCSC)C3=O)[C@@H](C)CC[C@]12C
MIC [1]: > 100 µM
MIC [2]: 12.5 µM (≈ 5.4 µg/mL)
IC50 [3]: 8 µM
IC50 [4]: 8.7 µM
IC50 [5]: 6.2 µM
MIC [6]: > 100 µM
MIC [7]: 12.5 µM (≈ 5.4 µg/mL)
IC50 [8]: 8.8 µM
